{
  "source": "ChEMBL document CHEMBL5625254",
  "about": "“Design, synthesis and evaluation of ursodeoxycholic acid-cinnamic acid hybrids as potential anti-inflammatory agents by inhibiting Akt/NF-κB and MAPK signaling pathways” (Eur J Med Chem, 2023)",
  "key": {"[1]": {"test_system": "RAW264.7", "test": "Cytotoxicity against mouse RAW264.7 cells assessed as cell viability at 20 uM incubated for 24 hrs by CCK8 assay", "assay_type": "toxicity, cell-based", "conditions": "raw264.7, 24 h"}, "[2]": {"test_system": "RAW264.7", "test": "Anti-inflammatory activity in mouse RAW264.7 cells assessed as inhibition of LPS-induced NO production at 10 uM incubated for 24 hrs relative to control", "assay_type": "functional"}, "[3]": {"test_system": "RAW264.7", "test": "Anti-inflammatory activity in mouse RAW264.7 cells assessed as inhibition of LPS-induced NO production incubated for 24 hrs", "assay_type": "functional, cell-based", "conditions": "for IC50: RAW264.7, 24 h; for inhibition: dose 1.25-20 µM"}},
  "data": [
    {"compound": "COc1cc(/C=C/C(=O)N2CCN(C(=O)CC[C@@H](C)[C@H]3CC[C@H]4[C@@H]5[C@@H](O)C[C@@H]6C[C@H](O)CC[C@]6(C)[C@H]5CC[C@]34C)CC2)cc(OC)c1O", "values": [
      {"measurement": "Activity", "setting": "[1]", "value": "Toxic"}
    ]},
    {"compound": "C[C@H](CCC(=O)N1CCN(C(=O)/C=C/c2ccc(O)cc2)CC1)[C@H]1CC[C@H]2[C@@H]3[C@@H](O)C[C@@H]4C[C@H](O)CC[C@]4(C)[C@H]3CC[C@]12C", "values": [
      {"measurement": "Activity", "setting": "[1]", "value": "Non-Toxic"}
    ]},
    {"compound": "C[C@H](CCC(=O)N1CCN(C(=O)/C=C/c2cccc(Cl)c2)CC1)[C@H]1CC[C@H]2[C@@H]3[C@@H](O)C[C@@H]4C[C@H](O)CC[C@]4(C)[C@H]3CC[C@]12C", "values": [
      {"measurement": "Activity", "setting": "[1]", "value": "Non-Toxic"}
    ]},
    {"compound": "C[C@H](CCC(=O)N1CCN(C(=O)/C=C/c2ccc(F)c(F)c2)CC1)[C@H]1CC[C@H]2[C@@H]3[C@@H](O)C[C@@H]4C[C@H](O)CC[C@]4(C)[C@H]3CC[C@]12C", "values": [
      {"measurement": "Activity", "setting": "[1]", "value": "Non-Toxic"}
    ]},
    {"compound": "C[C@H](CCC(=O)N1CCN(C(=O)/C=C/c2ccc(Cl)cc2)CC1)[C@H]1CC[C@H]2[C@@H]3[C@@H](O)C[C@@H]4C[C@H](O)CC[C@]4(C)[C@H]3CC[C@]12C", "values": [
      {"measurement": "Activity", "setting": "[1]", "value": "Non-Toxic"},
      {"measurement": "inhibition at 10 µM", "setting": "[2]", "value": "> 50", "unit": "%"},
      {"measurement": "IC50", "setting": "[3]", "value": 8.23, "unit": "µM"},
      {"measurement": "inhibition", "setting": "[3]", "value": "Dose-Dependent Effect"}
    ]},
    {"compound": "C[C@H](CCC(=O)N1CCN(C(=O)/C=C/c2ccc(C(F)(F)F)cc2)CC1)[C@H]1CC[C@H]2[C@@H]3[C@@H](O)C[C@@H]4C[C@H](O)CC[C@]4(C)[C@H]3CC[C@]12C", "values": [
      {"measurement": "Activity", "setting": "[1]", "value": "Non-Toxic"}
    ]},
    {"compound": "COc1cc(/C=C/C(=O)N2CCN(C(=O)CC[C@@H](C)[C@H]3CC[C@H]4[C@@H]5[C@@H](O)C[C@@H]6C[C@H](O)CC[C@]6(C)[C@H]5CC[C@]34C)CC2)ccc1O", "values": [
      {"measurement": "Activity", "setting": "[1]", "value": "Non-Toxic"}
    ]},
    {"compound": "C[C@H](CCC(=O)N1CCN(C(=O)/C=C/c2ccc(Cl)c(Cl)c2)CC1)[C@H]1CC[C@H]2[C@@H]3[C@@H](O)C[C@@H]4C[C@H](O)CC[C@]4(C)[C@H]3CC[C@]12C", "values": [
      {"measurement": "Activity", "setting": "[1]", "value": "Non-Toxic"}
    ]},
    {"compound": "C[C@H](CCC(=O)N1CCN(C(=O)/C=C/c2ccccc2)CC1)[C@H]1CC[C@H]2[C@@H]3[C@@H](O)C[C@@H]4C[C@H](O)CC[C@]4(C)[C@H]3CC[C@]12C", "values": [
      {"measurement": "Activity", "setting": "[1]", "value": "Non-Toxic"},
      {"measurement": "inhibition at 10 µM", "setting": "[2]", "value": "> 50", "unit": "%"},
      {"measurement": "IC50", "setting": "[3]", "value": 9.5, "unit": "µM"},
      {"measurement": "inhibition", "setting": "[3]", "value": "Dose-Dependent Effect"}
    ]},
    {"compound": "C/C(=C\\c1ccccc1)C(=O)N1CCN(C(=O)CC[C@@H](C)[C@H]2CC[C@H]3[C@@H]4[C@@H](O)C[C@@H]5C[C@H](O)CC[C@]5(C)[C@H]4CC[C@]23C)CC1", "values": [
      {"measurement": "Activity", "setting": "[1]", "value": "Non-Toxic"}
    ]},
    {"compound": "C[C@H](CCC(=O)N1CCN(C(=O)/C=C/c2ccc(OC(F)(F)F)cc2)CC1)[C@H]1CC[C@H]2[C@@H]3[C@@H](O)C[C@@H]4C[C@H](O)CC[C@]4(C)[C@H]3CC[C@]12C", "values": [
      {"measurement": "Activity", "setting": "[1]", "value": "Toxic"}
    ]},
    {"compound": "CC(=O)O[C@@H]1CC[C@@]2(C)[C@@H](C1)C[C@H](OC(C)=O)[C@@H]1[C@@H]2CC[C@]2(C)[C@@H]([C@H](C)CCC(=O)N3CCN(C(=O)/C=C/c4ccc(C)cc4)CC3)CC[C@@H]12", "values": [
      {"measurement": "Activity", "setting": "[1]", "value": "Non-Toxic"}
    ]},
    {"compound": "Cc1ccc(/C=C/C(=O)N2CCN(C(=O)CC[C@@H](C)[C@H]3CC[C@H]4[C@@H]5C(=O)C[C@@H]6CC(=O)CC[C@]6(C)[C@H]5CC[C@]34C)CC2)cc1", "values": [
      {"measurement": "Activity", "setting": "[1]", "value": "Toxic"}
    ]},
    {"compound": "C[C@H](CCC(=O)N1CCN(C(=O)/C=C/c2ccc(F)cc2F)CC1)[C@H]1CC[C@H]2[C@@H]3[C@@H](O)C[C@@H]4C[C@H](O)CC[C@]4(C)[C@H]3CC[C@]12C", "values": [
      {"measurement": "Activity", "setting": "[1]", "value": "Toxic"}
    ]},
    {"compound": "C[C@H](CCC(=O)N1CCN(C(=O)/C=C/c2ccccc2O)CC1)[C@H]1CC[C@H]2[C@@H]3[C@@H](O)C[C@@H]4C[C@H](O)CC[C@]4(C)[C@H]3CC[C@]12C", "values": [
      {"measurement": "Activity", "setting": "[1]", "value": "Non-Toxic"}
    ]},
    {"compound": "C[C@H](CCC(=O)N1CCN(C(=O)/C=C\\c2ccc3c(c2)OCO3)CC1)[C@H]1CC[C@H]2[C@@H]3[C@@H](O)C[C@@H]4C[C@H](O)CC[C@]4(C)[C@H]3CC[C@]12C", "values": [
      {"measurement": "Activity", "setting": "[1]", "value": "Non-Toxic"}
    ]},
    {"compound": "C[C@H](CCC(=O)N1CCN(C(=O)/C=C/c2ccccc2Cl)CC1)[C@H]1CC[C@H]2[C@@H]3[C@@H](O)C[C@@H]4C[C@H](O)CC[C@]4(C)[C@H]3CC[C@]12C", "values": [
      {"measurement": "Activity", "setting": "[1]", "value": "Non-Toxic"}
    ]},
    {"compound": "COc1cc(/C=C/C(=O)N2CCN(C(=O)CC[C@@H](C)[C@H]3CC[C@H]4[C@@H]5[C@@H](O)C[C@@H]6C[C@H](O)CC[C@]6(C)[C@H]5CC[C@]34C)CC2)cc(OC)c1OC", "values": [
      {"measurement": "Activity", "setting": "[1]", "value": "Non-Toxic"},
      {"measurement": "inhibition at 10 µM", "setting": "[2]", "value": "> 50", "unit": "%"},
      {"measurement": "IC50", "setting": "[3]", "value": 9.49, "unit": "µM"},
      {"measurement": "inhibition", "setting": "[3]", "value": "Dose-Dependent Effect"}
    ]},
    {"compound": "COc1cc(/C=C\\C(=O)N2CCN(C(=O)CC[C@@H](C)[C@H]3CC[C@H]4[C@@H]5[C@@H](O)C[C@@H]6C[C@H](O)CC[C@]6(C)[C@H]5CC[C@]34C)CC2)ccc1O", "values": [
      {"measurement": "Activity", "setting": "[1]", "value": "Non-Toxic"}
    ]},
    {"compound": "C[C@H](CCC(=O)N1CCN(C(=O)/C=C/c2ccc3c(c2)OCO3)CC1)[C@H]1CC[C@H]2[C@@H]3[C@@H](O)C[C@@H]4C[C@H](O)CC[C@]4(C)[C@H]3CC[C@]12C", "values": [
      {"measurement": "Activity", "setting": "[1]", "value": "Non-Toxic"}
    ]},
    {"compound": "C[C@H](CCC(=O)N1CCN(C(=O)/C=C/c2cccc(OC(F)(F)F)c2)CC1)[C@H]1CC[C@H]2[C@@H]3[C@@H](O)C[C@@H]4C[C@H](O)CC[C@]4(C)[C@H]3CC[C@]12C", "values": [
      {"measurement": "Activity", "setting": "[1]", "value": "Non-Toxic"},
      {"measurement": "inhibition at 10 µM", "setting": "[2]", "value": "> 50", "unit": "%"},
      {"measurement": "IC50", "setting": "[3]", "value": 8.58, "unit": "µM"},
      {"measurement": "inhibition", "setting": "[3]", "value": "Dose-Dependent Effect"}
    ]},
    {"compound": "C[C@H](CCC(=O)N1CCN(C(=O)/C=C/c2cccc(O)c2)CC1)[C@H]1CC[C@H]2[C@@H]3[C@@H](O)C[C@@H]4C[C@H](O)CC[C@]4(C)[C@H]3CC[C@]12C", "values": [
      {"measurement": "Activity", "setting": "[1]", "value": "Non-Toxic"}
    ]},
    {"compound": "C[C@H](CCC(=O)N1CCN(C(=O)/C=C/c2cc(F)c(F)c(F)c2)CC1)[C@H]1CC[C@H]2[C@@H]3[C@@H](O)C[C@@H]4C[C@H](O)CC[C@]4(C)[C@H]3CC[C@]12C", "values": [
      {"measurement": "Activity", "setting": "[1]", "value": "Toxic"}
    ]},
    {"compound": "C[C@H](CCC(=O)N1CCN(C(=O)CCc2ccccc2)CC1)[C@H]1CC[C@H]2[C@@H]3[C@@H](O)C[C@@H]4C[C@H](O)CC[C@]4(C)[C@H]3CC[C@]12C", "values": [
      {"measurement": "Activity", "setting": "[1]", "value": "Non-Toxic"}
    ]},
    {"compound": "COc1cc(/C=C\\C(=O)N2CCN(C(=O)CC[C@@H](C)[C@H]3CC[C@H]4[C@@H]5[C@@H](O)C[C@@H]6C[C@H](O)CC[C@]6(C)[C@H]5CC[C@]34C)CC2)cc(OC)c1OC", "values": [
      {"measurement": "Activity", "setting": "[1]", "value": "Non-Toxic"}
    ]},
    {"compound": "C[C@H](CCC(=O)N1CCN(C(=O)/C=C/c2cc(F)cc(F)c2)CC1)[C@H]1CC[C@H]2[C@@H]3[C@@H](O)C[C@@H]4C[C@H](O)CC[C@]4(C)[C@H]3CC[C@]12C", "values": [
      {"measurement": "Activity", "setting": "[1]", "value": "Non-Toxic"}
    ]},
    {"compound": "C[C@H](CCC(=O)N1CCN(C(=O)/C=C/c2cccc3ccccc23)CC1)[C@H]1CC[C@H]2[C@@H]3[C@@H](O)C[C@@H]4C[C@H](O)CC[C@]4(C)[C@H]3CC[C@]12C", "values": [
      {"measurement": "Activity", "setting": "[1]", "value": "Non-Toxic"}
    ]},
    {"compound": "COc1ccc(/C=C/C(=O)N2CCN(C(=O)CC[C@@H](C)[C@H]3CC[C@H]4[C@@H]5[C@@H](O)C[C@@H]6C[C@H](O)CC[C@]6(C)[C@H]5CC[C@]34C)CC2)cc1", "values": [
      {"measurement": "Activity", "setting": "[1]", "value": "Non-Toxic"}
    ]}
  ]
}
